ChEMBL document CHEMBL1201862, “PubChem BioAssay data set” (2004)
Where “and” joins values, the source holds several entries; their conditions need not be identical. Equal entries are not always repeated.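 Values below derive from 48-hour exposures of cells grown in 96-well plates, with endpoints linearly interpolated between the two concentrations bracketing the appropriate inhibition level. GI50 is the concentration that inhibits growth by half.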 Calls of active or inactive are those of the source. No stated cut-off is given here; in the data, active = GI50 up to about 1.1 µM and inactive = higher.

Assays:
Assay in all cases: growth of human tumour cells (NCI), 48 h
MDA-MB-435 = tested on: MDA-MB-435
UO-31 = tested on: UO-31
SK-MEL-5 = tested on: SK-MEL-5
MDA-MB-231 = tested on: MDA-MB-231
HOP-92 = tested on: HOP-92
HOP-62 = tested on: HOP-62
OVCAR-8 = tested on: OVCAR-8
IGROV-1 = tested on: IGROV-1
MOLT-4 = tested on: MOLT-4
CCRF-CEM = tested on: CCRF-CEM
OVCAR-5 = tested on: OVCAR-5
RXF 393 = tested on: RXF 393
T47D = tested on: T47D
NCI-H23 = tested on: NCI-H23
DU-145 = tested on: DU-145
UACC-257 = tested on: UACC-257
SNB-19 = tested on: SNB-19
SK-MEL-2 = tested on: SK-MEL-2
NCI-H460 = tested on: NCI-H460
HL-60 = tested on: HL-60

SMILES	GI50 (MDA-MB-435)	GI50 (UO-31)	GI50 (SK-MEL-5)	GI50 (MDA-MB-231)	GI50 (HOP-92)	GI50 (HOP-62)	GI50 (OVCAR-8)	GI50 (IGROV-1)	GI50 (MOLT-4)	GI50 (CCRF-CEM)	GI50 (OVCAR-5)	GI50 (RXF 393)	GI50 (T47D)	GI50 (NCI-H23)	GI50 (DU-145)	GI50 (UACC-257)	GI50 (SNB-19)	GI50 (SK-MEL-2)	GI50 (NCI-H460)	GI50 (HL-60)
COc1ccc(-c2cc3cc(Cl)cc(Cl)c3oc2=O)cc1OC	65 µM (inactive)	58.7 µM (inactive)	28.8 µM (inactive)	62.7 µM (inactive)	46.6 µM (inactive)	40 µM (inactive)	65.8 µM (inactive)	51.8 µM (inactive)	> 100 µM (inactive)	> 100 µM (inactive)	> 100 µM (inactive)	19.4 µM (inactive)	46.8 µM (inactive)	36.5 µM (inactive)	> 100 µM (inactive)	51.1 µM (inactive)	28.2 µM (inactive)	> 100 µM (inactive)	36.7 µM (inactive)	> 100 µM (inactive)
O=C(C1OC1c1ccc(F)cc1)C12CC3CC(CC(C3)C1)C2 (stereo not given)	11.9 µM (inactive)	20.9 µM (inactive)	16.5 µM (inactive)	26.5 µM (inactive)	20.3 µM (inactive)	27 µM (inactive)	14.4 µM (inactive)	19 µM (inactive)	15.8 µM (inactive)	6.95 µM (inactive)	19.6 µM (inactive)	17.7 µM (inactive)	25.1 µM (inactive)	22.1 µM (inactive)	34 µM (inactive)	26.9 µM (inactive)	33.4 µM (inactive)	12.9 µM (inactive)	13.3 µM (inactive)	4.04 µM (inactive)
Oc1ccc(Cc2nccc3cc(O)c(O)cc23)cc1O	51.3 µM (inactive)	40.6 µM (inactive)	28.8 µM (inactive)	97.1 µM (inactive)	90.2 µM (inactive)	47.4 µM (inactive)	45.7 µM (inactive)	33 µM (inactive)	22.3 µM (inactive)	17.9 µM (inactive)	48.9 µM (inactive)	37.6 µM (inactive)	30.4 µM (inactive)	38.1 µM (inactive)	66.5 µM (inactive)	20.8 µM (inactive)	55.2 µM (inactive)	49.7 µM (inactive)	29.6 µM (inactive)	26.3 µM (inactive)
CCN(CC)CC1CCCCN1CC(=O)N1c2ccccc2NC(=O)CC1C (stereo not given)	> 100 µM (inactive)	> 100 µM (inactive)	> 100 µM (inactive)	> 100 µM (inactive)	> 100 µM (inactive)	> 100 µM (inactive)	> 100 µM (inactive)	> 100 µM (inactive)	> 100 µM (inactive)	> 100 µM (inactive)	> 100 µM (inactive)	> 100 µM (inactive)	> 100 µM (inactive)	> 100 µM (inactive)	> 100 µM (inactive)	> 100 µM (inactive)	> 100 µM (inactive)	> 100 µM (inactive)	> 100 µM (inactive)	> 100 µM (inactive)
Cn1c(=O)[nH]c2nccnc2c1=O	> 10 µM (inactive)	> 10 µM (inactive)	> 10 µM (inactive)	> 10 µM (inactive)	> 10 µM (inactive)	> 10 µM (inactive)	> 10 µM (inactive)	> 10 µM (inactive)	> 10 µM (inactive)	> 10 µM (inactive)	> 10 µM (inactive)	> 10 µM (inactive)	> 10 µM (inactive)	> 10 µM (inactive)	> 10 µM (inactive)	> 10 µM (inactive)	> 10 µM (inactive)	> 10 µM (inactive)	> 10 µM (inactive)	> 10 µM (inactive)
C=CCOC(=O)C1=C(C)N=C2N[C@H](CCCCCCCCC)C[C@@H]3CCC1N23 (stereo not given in full)	20.3 µM (inactive)	17.1 µM (inactive)	17.7 µM (inactive)	21.5 µM (inactive)	19.3 µM (inactive)	30.5 µM (inactive)	30.5 µM (inactive)	21.6 µM (inactive)	30.1 µM (inactive)	36.4 µM (inactive)	22.7 µM (inactive)	19.5 µM (inactive)	23.2 µM (inactive)	20 µM (inactive)	27.4 µM (inactive)	18.3 µM (inactive)	19.2 µM (inactive)	19.8 µM (inactive)	25.4 µM (inactive)	26.4 µM (inactive)
COc1cc(OC)c(OC)cc1/C=C/c1ccccn1	> 10 µM (inactive)	> 10 µM (inactive)	> 10 µM (inactive)	> 10 µM (inactive)	> 10 µM (inactive)	> 10 µM (inactive)	> 10 µM (inactive)	> 10 µM (inactive)	> 10 µM (inactive)	> 10 µM (inactive)	> 10 µM (inactive)	> 10 µM (inactive)	> 10 µM (inactive)	> 10 µM (inactive)	> 10 µM (inactive)	> 10 µM (inactive)	> 10 µM (inactive)	> 10 µM (inactive)	> 10 µM (inactive)	> 10 µM (inactive)
CCN(CC)CCNC(=O)c1nn(-c2ccc(Cl)cc2)c2c1CCc1cc(OC)ccc1-2	9.98 µM (inactive)	2.49 µM (inactive)	1.74 µM (inactive)	12.1 µM (inactive)	5.51 µM (inactive)	13.3 µM (inactive)	12.3 µM (inactive)	12.8 µM (inactive)	5.75 µM (inactive)	5.3 µM (inactive)	4.75 µM (inactive)	3.04 µM (inactive)	4.3 µM (inactive)	12.8 µM (inactive)	15.3 µM (inactive)	1.82 µM (inactive)	10.5 µM (inactive)	1.68 µM (inactive)	4.51 µM (inactive)	2.7 µM (inactive)
Nc1ncnc2c1ncn2C1CC(O)C(CO)O1 (stereo not given)	> 100 µM (inactive)	> 100 µM (inactive)	> 100 µM (inactive)	> 100 µM (inactive)	> 100 µM (inactive)	> 100 µM (inactive)	> 100 µM (inactive)	> 100 µM (inactive)	> 100 µM (inactive)	> 100 µM (inactive) and 70.5 µM (inactive)	> 100 µM (inactive)	> 100 µM (inactive)	> 100 µM (inactive)	> 100 µM (inactive)	> 100 µM (inactive)	> 100 µM (inactive)	> 100 µM (inactive)	> 100 µM (inactive)	> 100 µM (inactive)	> 100 µM (inactive)
CC(=O)Nc1sc([N+](=O)[O-])cc1S(=O)(=O)c1ccc(Cl)cc1	3.3 µM (inactive)	3.09 µM (inactive)	1.12 µM (active)	4.23 µM (inactive)	2 µM (inactive)	1.39 µM (inactive)	3.78 µM (inactive)	4.69 µM (inactive)	3.78 µM (inactive)	8.2 µM (inactive)	4.7 µM (inactive)	2.64 µM (inactive)	2.04 µM (inactive)	2.39 µM (inactive)	3.3 µM (inactive)	2.64 µM (inactive)	3.31 µM (inactive)	0.92 µM (active)	1.65 µM (inactive)	1.92 µM (inactive)
COc1cc(/C=C2\CC3C4CC[C@H]5C[C@@H](O)CC[C@]5(C)C4CC[C@]3(C)C2=O)cc(OC)c1OC (stereo not given in full)	13.5 µM (inactive)	4.08 µM (inactive)	9.29 µM (inactive)	22.1 µM (inactive)	26.5 µM (inactive)	13 µM (inactive)	15.8 µM (inactive)	36.6 µM (inactive)	4.82 µM (inactive)	7.36 µM (inactive)	27 µM (inactive)	13.9 µM (inactive)	3.7 µM (inactive)	20.4 µM (inactive)	27.2 µM (inactive)	21.8 µM (inactive)	17.5 µM (inactive)	14.9 µM (inactive)	10.7 µM (inactive)	5.75 µM (inactive)
COc1ccc(/C=C2\CCC(Cc3ccccc3)(CN(C)C)C2=O)cc1 (stereo not given)	32.1 µM (inactive)	54.3 µM (inactive)	20.8 µM (inactive)	98.9 µM (inactive)	53.3 µM (inactive)	> 100 µM (inactive)	41.6 µM (inactive)	> 100 µM (inactive)	25 µM (inactive)	27.9 µM (inactive)	> 96.2 µM (inactive)	35.1 µM (inactive)	46.7 µM (inactive)	44 µM (inactive)	> 70.8 µM (inactive)	25.2 µM (inactive)	51.4 µM (inactive)	60.4 µM (inactive)	67.3 µM (inactive)	19.7 µM (inactive)
Cc1cc(OC2OC(CO)C(O)C(O)C2O)ccc1O (stereo not given)	> 100 µM (inactive)	> 100 µM (inactive)	> 100 µM (inactive)	> 100 µM (inactive)	> 100 µM (inactive)	> 100 µM (inactive)	> 100 µM (inactive)	> 100 µM (inactive)	> 100 µM (inactive)	> 100 µM (inactive)	> 100 µM (inactive)	> 100 µM (inactive)	> 100 µM (inactive)	> 100 µM (inactive)	> 10 µM (inactive)	> 100 µM (inactive)	> 100 µM (inactive)	> 100 µM (inactive)	> 100 µM (inactive)	> 100 µM (inactive)
